Starred links: 1 amine or outer side, 2 acyl side, 3 side chain; linkers in the order of their positions; H or OH if unused. Non-standard residues stand in square brackets, D forms with d. Residues, ends and D or L forms follow the SMILES beside them. Groups on a side chain read outwards from the residue. *: point of attachment. X7 = CCCCCCCCCCCCCCCC(=O)N[C@@H](CCC(=O)N[C@@H](CCC(=O)N[C@@H](CCC(=O)NCCCOCCOCCOCCCNC(=O)COCC(=O)NCCCOCCOCCOCCCNC(=O)COCC(=O)NCCCOCCOCCOCCCNC(=O)COCC(=O)*)C(=O)O)C(=O)O)C(=O)O; X1 = CCCCCCCCCCCCCCCC(=O)N[C@@H](CCC(=O)N[C@@H](CCC(=O)N[C@@H](CCC(=O)NCCCOCCOCCOCCCNC(=O)CCC(=O)NCCCOCCOCCOCCCNC(=O)CCC(=O)NCCCOCCOCCOCCCN*)C(=O)O)C(=O)O)C(=O)O; Phe(4-F) = N[C@@H](Cc1ccc(F)cc1)C(=O)O; Suc = O=C(CCC(=O)[*:2])[*:1]; αMeK = C[C@](N)(CCCCN)C(=O)O; Aib = CC(C)(N)C(=O)O

The source of these data is patent US11725036B2, “Modified lipidated relaxin B chain peptides and their therapeutic use” (Sanofi, priority 2018, dated 2023).

In the assay the target is T1, RXFP1 (Homo sapiens, UniProt Q9HBX9).
T1 construct: OVCAR5 cells expressing endogenous RXFP1; endogenous in cells; host or cells: OVCAR5
T1 sequence (Q9HBX9 1-757): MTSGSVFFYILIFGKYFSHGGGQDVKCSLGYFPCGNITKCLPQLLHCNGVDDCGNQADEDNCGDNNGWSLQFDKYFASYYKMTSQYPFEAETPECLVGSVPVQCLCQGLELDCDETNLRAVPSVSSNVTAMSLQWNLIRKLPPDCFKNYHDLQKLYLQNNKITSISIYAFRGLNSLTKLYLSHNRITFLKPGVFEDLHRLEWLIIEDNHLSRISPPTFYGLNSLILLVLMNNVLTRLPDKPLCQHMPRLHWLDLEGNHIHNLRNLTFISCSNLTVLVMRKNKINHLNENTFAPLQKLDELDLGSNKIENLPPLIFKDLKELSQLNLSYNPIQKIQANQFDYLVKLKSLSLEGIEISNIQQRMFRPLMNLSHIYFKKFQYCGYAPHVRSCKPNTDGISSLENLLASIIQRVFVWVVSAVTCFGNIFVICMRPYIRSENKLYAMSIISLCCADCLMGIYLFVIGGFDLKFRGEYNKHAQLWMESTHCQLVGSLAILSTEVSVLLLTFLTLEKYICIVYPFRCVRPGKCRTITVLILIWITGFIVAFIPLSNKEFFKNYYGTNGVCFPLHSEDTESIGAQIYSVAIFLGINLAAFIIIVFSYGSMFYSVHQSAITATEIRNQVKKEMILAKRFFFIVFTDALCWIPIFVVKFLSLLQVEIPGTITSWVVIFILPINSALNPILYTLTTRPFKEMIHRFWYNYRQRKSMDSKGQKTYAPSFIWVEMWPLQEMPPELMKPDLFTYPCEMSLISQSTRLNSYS
As to the kind of experiment: OVCAR5 cAMP assay (HTRF). Format: cell-based. The note with it: for EC50: OVCAR 5 cells expressing endogenous RXFP1, cAMP readout; for Emax: OVCAR 5 cells, maximal cAMP relative to H2-relaxin. The essentials: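 Endogenous RXFP1 in OVCAR5 cells, pretreated 40 min at 37° C with 1 mM IBMX, then exposed to increasing peptide concentrations in serum-free medium for 30 min at 37° C. cAMP read by HTRF; EC50 by variable-slope sigmoidal fit, Emax as % of H2-relaxin maximal cAMP in same run.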

For the compound `CCCCCCCCCCCCCCCC(=O)N[C@@H](CCC(=O)N[C@@H](CCC(=O)N[C@@H](CCC(=O)NCCCOCCOCCOCCCNC(=O)CCC(=O)NCCCOCCOCCOCCCNC(=O)CCC(=O)NCCCOCCOCCOCCCNC(=O)CCC(=O)NCCCC[C@H](NC(=O)CNC(=O)[C@H](CCC(=O)O)NC(=O)C(C)(C)NC(=O)C(C)(C)NC(=O)[C@@H](NC(=O)[C@H](CCCCNC(C)=O)NC(=O)[C@H](C)NC(=O)[C@H](CCCNC(=N)N)NC(=O)[C@@H](NC(=O)[C@H](CCCCN)NC(=O)[C@H](CCC(=O)O)NC(=O)[C@H](CCCNC(=N)N)NC(=O)CNC(=O)[C@H](CCC(=O)O)NC(=O)[C@H](CC(C)C)NC(C)=O)C(C)C)[C@@H](C)CC)C(=O)N[C@@H](CO)C(=O)N[C@H](C(=O)N[C@@H](Cc1c[nH]c2ccccc12)C(=O)N[C@@H](CO)C(=O)NC(C)(C)C(=O)N[C@@H](CCCNC(=N)N)C(=O)N[C@@H](CCCCNC(C)=O)C(=O)N[C@@H](CCCNC(=N)N)C(N)=O)[C@@H](C)O)C(=O)O)C(=O)O)C(=O)O` [compound 69] (Ac-LEGREKVRAK(Ac)I[Aib][Aib]EGK([Suc-X1])STWS[Aib]RK(Ac)R-NH2), it took 0.78 nM to reach a half-maximal effect (EC50) and the Emax came out at 97%.

As for `CCCCCCCCCCCCCCCC(=O)N[C@@H](CCC(=O)N[C@@H](CCC(=O)N[C@@H](CCC(=O)NCCCOCCOCCOCCCNC(=O)CCC(=O)NCCCOCCOCCOCCCNC(=O)CCC(=O)NCCCOCCOCCOCCCNC(=O)CCC(=O)NCCCC[C@H](NC(=O)CNC(=O)[C@H](CCC(=O)O)NC(=O)C(C)(C)NC(=O)C(C)(C)NC(=O)[C@@H](NC(=O)[C@H](CCCCNC(C)=O)NC(=O)[C@H](C)NC(=O)[C@H](CCCNC(=N)N)NC(=O)[C@@H](NC(=O)[C@H](CCCCN)NC(=O)[C@H](CCC(=O)O)NC(=O)[C@H](CCCNC(=N)N)NC(=O)CNC(=O)[C@H](CCC(=O)O)NC(=O)[C@H](CC(C)C)NC(C)=O)C(C)C)[C@@H](C)CC)C(=O)N[C@@H](CO)C(=O)N[C@H](C(=O)N[C@@H](Cc1ccccc1)C(=O)N[C@@H](CO)C(=O)N[C@@H](CCCNC(=N)N)C(=O)N[C@@H](CCCNC(=N)N)C(=O)N[C@@H](C)C(=O)N[C@@H](CCCCNC(C)=O)C(N)=O)[C@@H](C)O)C(=O)O)C(=O)O)C(=O)O` [compound 87] (Ac-LEGREKVRAK(Ac)I[Aib][Aib]EGK([Suc-X1])STFSRRAK(Ac)-NH2), the EC50 was 0.1 nM and the Emax worked out at 96%.

`CCCCCCCCCCCCCCCC(=O)N[C@@H](CCC(=O)N[C@@H](CCC(=O)N[C@@H](CCC(=O)NCCCOCCOCCOCCCNC(=O)CCC(=O)NCCCOCCOCCOCCCNC(=O)CCC(=O)NCCCOCCOCCOCCCNC(=O)CCC(=O)NCCCC[C@H](NC(=O)CNC(=O)[C@H](CCC(=O)O)NC(=O)C(C)(C)NC(=O)C(C)(C)NC(=O)[C@@H](NC(=O)[C@H](CCCCNC(C)=O)NC(=O)[C@H](C)NC(=O)[C@H](CCCNC(=N)N)NC(=O)[C@@H](NC(=O)[C@H](CCCNC(=N)N)NC(=O)[C@H](CCC(=O)O)NC(=O)[C@H](CCCNC(=N)N)NC(=O)CNC(=O)[C@H](CCC(=O)O)NC(=O)[C@H](CC(C)C)NC(C)=O)C(C)C)[C@@H](C)CC)C(=O)N[C@@H](CO)C(=O)N[C@H](C(=O)N[C@@H](Cc1ccccc1)C(=O)N[C@@H](CO)C(=O)NC(C)(C)C(=O)N[C@@H](CCCNC(=N)N)C(=O)N[C@@H](CCCNC(=N)N)C(=O)N[C@@H](CCCCNC(C)=O)C(N)=O)[C@@H](C)O)C(=O)O)C(=O)O)C(=O)O` [compound 76] (Ac-LEGRERVRAK(Ac)I[Aib][Aib]EGK([Suc-X1])STFS[Aib]RRK(Ac)-NH2) registered a concentration for a half-maximal effect (EC50) of 0.18 nM and a maximum response (Emax) of 96%.

Take `CCCCCCCCCCCCCCCC(=O)N[C@@H](CCC(=O)N[C@@H](CCC(=O)N[C@@H](CCC(=O)NCCCOCCOCCOCCCNC(=O)COCC(=O)NCCCOCCOCCOCCCNC(=O)COCC(=O)NCCCOCCOCCOCCCNC(=O)COCC(=O)NCCCC[C@H](NC(=O)CNC(=O)[C@H](CCC(=O)O)NC(=O)C(C)(C)NC(=O)C(C)(C)NC(=O)[C@@H](NC(=O)[C@H](CCCCNC(C)=O)NC(=O)[C@H](C)NC(=O)[C@H](CCCNC(=N)N)NC(=O)[C@@H](NC(=O)[C@H](CCCCN)NC(=O)[C@H](CCC(=O)O)NC(=O)[C@H](CCCNC(=N)N)NC(=O)CNC(=O)[C@H](CCC(=O)O)NC(=O)[C@H](CC(C)C)NC(C)=O)C(C)C)[C@@H](C)CC)C(=O)N[C@@H](CO)C(=O)N[C@H](C(=O)N[C@@H](Cc1ccccc1)C(=O)N[C@@H](CO)C(=O)N[C@@](C)(CCCCN)C(=O)N[C@@H](CCCNC(=N)N)C(=O)N[C@@H](C)C(=O)N[C@@H](CCCCNC(C)=O)C(N)=O)[C@@H](C)O)C(=O)O)C(=O)O)C(=O)O` [compound 22] (Ac-LEGREKVRAK(Ac)I[Aib][Aib]EGK(X7)STFS[αMeK]RAK(Ac)-NH2): the EC50 was determined as 1 nM and the Emax was found to be 92%.

`CCCCCCCCCCCCCCCC(=O)N[C@@H](CCC(=O)N[C@@H](CCC(=O)N[C@@H](CCC(=O)NCCCOCCOCCOCCCNC(=O)CCC(=O)NCCCOCCOCCOCCCNC(=O)CCC(=O)NCCCOCCOCCOCCCNC(=O)CCC(=O)NCCCC[C@H](NC(=O)CNC(=O)[C@H](CCC(=O)O)NC(=O)C(C)(C)NC(=O)C(C)(C)NC(=O)[C@@H](NC(=O)[C@H](CCCCNC(C)=O)NC(=O)[C@H](C)NC(=O)[C@H](CCCNC(=N)N)NC(=O)[C@@H](NC(=O)[C@H](CCCCN)NC(=O)[C@H](CCC(=O)O)NC(=O)[C@H](CCCNC(=N)N)NC(=O)CNC(=O)[C@H](CCC(=O)O)NC(=O)[C@H](CC(C)C)NC(C)=O)C(C)C)[C@@H](C)CC)C(=O)N[C@@H](CO)C(=O)N[C@@H](CCCNC(=N)N)C(=O)N[C@@H](Cc1c[nH]c2ccccc12)C(=O)N[C@@H](CO)C(=O)NC(C)(C)C(=O)N[C@@H](CCCNC(=N)N)C(=O)N[C@@H](CCCCN)C(=O)N[C@@H](CCCCNC(C)=O)C(N)=O)C(=O)O)C(=O)O)C(=O)O` [compound 64] (Ac-LEGREKVRAK(Ac)I[Aib][Aib]EGK([Suc-X1])SRWS[Aib]RKK(Ac)-NH2) displayed an EC50 of 0.52 nM and an Emax of 95%.

Regarding `CCCCCCCCCCCCCCCC(=O)N[C@@H](CCC(=O)N[C@@H](CCC(=O)N[C@@H](CCC(=O)NCCCOCCOCCOCCCNC(=O)CCC(=O)NCCCOCCOCCOCCCNC(=O)CCC(=O)NCCCOCCOCCOCCCNC(=O)CCC(=O)NCCCC[C@H](NC(=O)CNC(=O)[C@H](CCC(=O)O)NC(=O)C(C)(C)NC(=O)C(C)(C)NC(=O)[C@@H](NC(=O)[C@H](CCCCNC(C)=O)NC(=O)[C@H](C)NC(=O)[C@H](CCCNC(=N)N)NC(=O)[C@@H](NC(=O)[C@H](CCCNC(=N)N)NC(=O)[C@H](CCC(=O)O)NC(=O)[C@H](CCCNC(=N)N)NC(=O)CNC(=O)[C@H](CCC(=O)O)NC(=O)[C@H](CC(C)C)NC(C)=O)C(C)C)[C@@H](C)CC)C(=O)N[C@@H](CO)C(=O)N[C@H](C(=O)N[C@@H](Cc1c[nH]c2ccccc12)C(=O)N[C@@H](CO)C(=O)NC(C)(C)C(=O)N[C@@H](CCCNC(=N)N)C(=O)N[C@@H](CCCCN)C(=O)N[C@@H](CCCCNC(C)=O)C(N)=O)[C@@H](C)O)C(=O)O)C(=O)O)C(=O)O` [compound 67] (Ac-LEGRERVRAK(Ac)I[Aib][Aib]EGK([Suc-X1])STWS[Aib]RKK(Ac)-NH2), the response was half-maximal at 0.48 nM (EC50) and the Emax came out at 95%.

`CCCCCCCCCCCCCCCC(=O)N[C@@H](CCC(=O)N[C@@H](CCC(=O)N[C@@H](CCC(=O)NCCCOCCOCCOCCCNC(=O)CCC(=O)NCCCOCCOCCOCCCNC(=O)CCC(=O)NCCCOCCOCCOCCCNC(=O)CCC(=O)NCCCC[C@H](NC(=O)CNC(=O)[C@H](CCC(=O)O)NC(=O)C(C)(C)NC(=O)C(C)(C)NC(=O)[C@@H](NC(=O)[C@H](CCCCNC(C)=O)NC(=O)[C@H](C)NC(=O)[C@H](CCCNC(=N)N)NC(=O)[C@@H](NC(=O)[C@H](CCCNC(=N)N)NC(=O)[C@H](CCC(=O)O)NC(=O)[C@H](CCCNC(=N)N)NC(=O)CNC(=O)[C@H](CCC(=O)O)NC(=O)[C@H](CC(C)C)NC(C)=O)C(C)C)[C@@H](C)CC)C(=O)N[C@@H](CO)C(=O)N[C@H](C(=O)N[C@@H](Cc1ccc(F)cc1)C(=O)N[C@@H](CO)C(=O)NC(C)(C)C(=O)N[C@@H](CCCNC(=N)N)C(=O)N[C@@H](CCCNC(=N)N)C(=O)N[C@@H](CCCCNC(C)=O)C(N)=O)[C@@H](C)O)C(=O)O)C(=O)O)C(=O)O` [compound 91] (Ac-LEGRERVRAK(Ac)I[Aib][Aib]EGK([Suc-X1])ST[Phe(4-F)]S[Aib]RRK(Ac)-NH2) showed an EC50 of 0.09 nM and an Emax of 97%.
